Data on eleven compounds can be found in article PMC4971745, “Evaluation of a Set of C9 N-acyl Neu5Ac2en Mimetics as Viral Sialidase Selective Inhibitors” (International Journal of Medicinal Chemistry, 2010).

pIC50: −log10 of the molar value.

The target in assay [1] is T1, sialidase of influenza A virus A/PR/8/34 (H1N1) (Influenza A virus, UniProt P03468).
T1 construct: preincubated with 5 μL of the virus containing 2 enzyme units; host or cells: whole virus preparation
As to the kind of experiment: biochemical.

For assay [2], the target named is T2, sialidase of influenza A virus A/Memphis/1/71 (H3N2) (Influenza A virus, UniProt P03475).
T2 construct: preincubated with 5 μL of the virus containing 2 enzyme units; host or cells: whole virus preparation
T2 sequence (P03475 whole entry): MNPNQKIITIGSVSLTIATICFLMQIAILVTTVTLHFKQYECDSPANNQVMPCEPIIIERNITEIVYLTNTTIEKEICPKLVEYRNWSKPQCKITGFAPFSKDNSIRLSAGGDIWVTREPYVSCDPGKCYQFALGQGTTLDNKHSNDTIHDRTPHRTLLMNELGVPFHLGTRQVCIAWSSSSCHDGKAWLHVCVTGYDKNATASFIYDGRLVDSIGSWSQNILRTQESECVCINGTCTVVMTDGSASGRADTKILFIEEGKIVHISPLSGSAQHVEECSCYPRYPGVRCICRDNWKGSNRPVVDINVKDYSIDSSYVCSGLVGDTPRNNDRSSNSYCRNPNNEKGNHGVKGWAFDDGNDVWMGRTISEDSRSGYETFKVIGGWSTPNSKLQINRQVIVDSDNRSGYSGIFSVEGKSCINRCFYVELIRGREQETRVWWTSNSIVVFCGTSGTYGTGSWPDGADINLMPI
As to the kind of experiment: biochemical.

For assay [3], the system named is sialidase of influenza A virus A/Duck/313/78 (H5N3). The assay is classed as biochemical. As to conditions: pH 6; read-out: Viral sialidase inhibition (IC50) H5N3.
The target in a further assay is human sialidase NEU1. As to conditions: previously reported; ref [39]; read-out: Human sialidase inhibition (IC50) NEU1; cited from earlier work.
In a further assay the target is human sialidase NEU2. Particulars: previously reported; ref [39]; read-out: Human sialidase inhibition (IC50) NEU2; cited from earlier work.
The next assay concerns the target human sialidase NEU3. As to conditions: previously reported; ref [39]; read-out: Human sialidase inhibition (IC50) NEU3; cited from earlier work.
The target of the next assay is human sialidase NEU4. As to conditions: previously reported; ref [39]; read-out: Human sialidase inhibition (IC50) NEU4; cited from earlier work.

T1 sequence (P03468 whole entry): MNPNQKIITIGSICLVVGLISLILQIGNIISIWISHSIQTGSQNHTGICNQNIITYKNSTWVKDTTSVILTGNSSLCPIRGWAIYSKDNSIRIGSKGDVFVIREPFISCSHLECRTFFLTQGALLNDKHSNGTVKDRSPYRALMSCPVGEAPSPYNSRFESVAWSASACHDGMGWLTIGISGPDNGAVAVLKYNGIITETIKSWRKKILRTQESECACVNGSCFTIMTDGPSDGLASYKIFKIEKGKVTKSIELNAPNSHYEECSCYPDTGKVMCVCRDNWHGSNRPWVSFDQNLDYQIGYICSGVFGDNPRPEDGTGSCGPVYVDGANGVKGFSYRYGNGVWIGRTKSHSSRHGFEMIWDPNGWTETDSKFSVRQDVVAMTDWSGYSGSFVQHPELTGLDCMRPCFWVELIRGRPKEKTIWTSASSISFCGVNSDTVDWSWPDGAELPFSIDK

`CC(=O)NC[C@@H](O)[C@@H](O)[C@H]1OC(C(=O)O)=C[C@@H](O)[C@@H]1NC(C)=O` [Compound 5]: the pIC50 was 4.66 in assay [1]; 4.47 in assay [2]; 4.01 in assay [3]; 4.24 at human sialidase NEU1; below 3.00 at human sialidase NEU2; below 3.00 at human sialidase NEU3. Besides, the pIC50 on human sialidase NEU4 was 3.24.
On to `CC(=O)N[C@@H]1[C@@H]([C@H](O)[C@H](O)CNC(=O)c2ccccc2)OC(C(=O)O)=C[C@H]1O` [Compound 6], for which the pIC50 in assay [1], in assay [2] and in assay [3] was below 3.00 each time.
Consider `CC(=O)N[C@@H]1[C@@H]([C@H](O)[C@H](O)CNC(=O)C2CCCC2)OC(C(=O)O)=C[C@H]1O` [Compound 7], for which the pIC50 in assay [1] was 3.07; in assay [2] it was below 3.00; in assay [3] it was below 3.00.
As for `CC(=O)N[C@@H]1[C@@H]([C@H](O)[C@H](O)CNC(=O)C2CC2)OC(C(=O)O)=C[C@H]1O` [Compound 8], the pIC50 is 5.05 in assay [1]; 4.80 in assay [2]; 4.01 in assay [3]; 3.17 at human sialidase NEU1; below 3.00 at human sialidase NEU2; below 3.00 at human sialidase NEU3. Moreover, the pIC50 at human sialidase NEU4 was 3.08.
`CCCC(=O)NC[C@@H](O)[C@@H](O)[C@H]1OC(C(=O)O)=C[C@@H](O)[C@@H]1NC(C)=O` [Compound 9]: the pIC50 is 4.01 in assay [1] and 3.25 in assay [2].
`CCC(C)C(=O)NC[C@@H](O)[C@@H](O)[C@@H]1OC(C(=O)O)=C[C@H](O)[C@H]1NC(C)=O` (some centres unmarked) [Compound 10]: the values for the pIC50 in assay [1], in assay [2] and in assay [3] were 4.23, below 3.00 and below 3.00, respectively.
With `CC(=O)N[C@@H]1[C@@H]([C@H](O)[C@H](O)CNC(=O)C(C)C)OC(C(=O)O)=C[C@H]1O` [Compound 11], the pIC50 is 4.27 in assay [1], 3.17 in assay [2] and below 3.00 in assay [3].
The like results for `CCCCC(=O)NC[C@@H](O)[C@@H](O)[C@H]1OC(C(=O)O)=C[C@@H](O)[C@@H]1NC(C)=O` [Compound 12] were, in that order, 4.47, 3.80 and below 3.00.
`CC(=O)N[C@@H]1[C@@H]([C@H](O)[C@H](O)CNC(=O)C(C)(C)C)OC(C(=O)O)=C[C@H]1O` [Compound 13]: the figures for the pIC50 in assay [1], in assay [2] and in assay [3] were 4.11, 3.11 and below 3.00, respectively.
For the compound `CCC(CC)C(=O)NC[C@@H](O)[C@@H](O)[C@@H]1OC(C(=O)O)=C[C@H](O)[C@H]1NC(C)=O` [Compound 14], the pIC50 in assay [1] is 3.16; in assay [2] it was below 3.00; in assay [3] it was below 3.00.
With `CC(=O)N[C@H]1[C@H]([C@H](O)[C@H](O)CO)OC(C(=O)O)=C[C@@H]1O` [DANA, 5-acetamido-2,6-anhydro-3,5-dideoxy-D-glycero-D-galacto-non-2-enonic acid, reference compound], the pIC50 in assay [2] was 5.05; in assay [3], 4.96; at human sialidase NEU3, 4.21; at human sialidase NEU4, 4.13.
